Laboratory results: ChEMBL document CHEMBL3217709, “SAR mining and its application to the design of TRPA1 antagonists” (Medchemcomm, 2012)

Columns and labels:
[1] = target: 5-hydroxytryptamine receptor 4 (Homo sapiens, UniProt Q13639); assay: Antagonist activity at […] receptor (unknown origin)
[2] = target: T1, Adenosine receptor A2b (Homo sapiens, UniProt P29275); assay: Antagonist activity at adenosine A2B receptor (unknown origin)
T1 sequence (P29275 whole entry): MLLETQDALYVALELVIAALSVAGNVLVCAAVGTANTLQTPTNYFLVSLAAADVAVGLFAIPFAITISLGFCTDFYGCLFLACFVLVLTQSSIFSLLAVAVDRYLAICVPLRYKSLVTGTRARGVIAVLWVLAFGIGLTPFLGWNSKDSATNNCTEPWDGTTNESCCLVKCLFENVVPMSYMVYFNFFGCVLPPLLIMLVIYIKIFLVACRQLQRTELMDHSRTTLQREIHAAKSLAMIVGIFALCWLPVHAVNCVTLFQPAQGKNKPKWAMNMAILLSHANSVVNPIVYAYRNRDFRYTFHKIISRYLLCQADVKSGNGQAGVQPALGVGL

[3] = target: Coagulation factor X (Homo sapiens, UniProt P00742); assay: Inhibition of factor-10a (unknown origin)
[4] = target: Transient receptor potential cation channel subfamily A member 1 (Homo sapiens, UniProt O75762); assay: Antagonist activity at TRPA1 (unknown origin)
Chain of Transient receptor potential cation channel subfamily A member 1 (O75762 whole entry): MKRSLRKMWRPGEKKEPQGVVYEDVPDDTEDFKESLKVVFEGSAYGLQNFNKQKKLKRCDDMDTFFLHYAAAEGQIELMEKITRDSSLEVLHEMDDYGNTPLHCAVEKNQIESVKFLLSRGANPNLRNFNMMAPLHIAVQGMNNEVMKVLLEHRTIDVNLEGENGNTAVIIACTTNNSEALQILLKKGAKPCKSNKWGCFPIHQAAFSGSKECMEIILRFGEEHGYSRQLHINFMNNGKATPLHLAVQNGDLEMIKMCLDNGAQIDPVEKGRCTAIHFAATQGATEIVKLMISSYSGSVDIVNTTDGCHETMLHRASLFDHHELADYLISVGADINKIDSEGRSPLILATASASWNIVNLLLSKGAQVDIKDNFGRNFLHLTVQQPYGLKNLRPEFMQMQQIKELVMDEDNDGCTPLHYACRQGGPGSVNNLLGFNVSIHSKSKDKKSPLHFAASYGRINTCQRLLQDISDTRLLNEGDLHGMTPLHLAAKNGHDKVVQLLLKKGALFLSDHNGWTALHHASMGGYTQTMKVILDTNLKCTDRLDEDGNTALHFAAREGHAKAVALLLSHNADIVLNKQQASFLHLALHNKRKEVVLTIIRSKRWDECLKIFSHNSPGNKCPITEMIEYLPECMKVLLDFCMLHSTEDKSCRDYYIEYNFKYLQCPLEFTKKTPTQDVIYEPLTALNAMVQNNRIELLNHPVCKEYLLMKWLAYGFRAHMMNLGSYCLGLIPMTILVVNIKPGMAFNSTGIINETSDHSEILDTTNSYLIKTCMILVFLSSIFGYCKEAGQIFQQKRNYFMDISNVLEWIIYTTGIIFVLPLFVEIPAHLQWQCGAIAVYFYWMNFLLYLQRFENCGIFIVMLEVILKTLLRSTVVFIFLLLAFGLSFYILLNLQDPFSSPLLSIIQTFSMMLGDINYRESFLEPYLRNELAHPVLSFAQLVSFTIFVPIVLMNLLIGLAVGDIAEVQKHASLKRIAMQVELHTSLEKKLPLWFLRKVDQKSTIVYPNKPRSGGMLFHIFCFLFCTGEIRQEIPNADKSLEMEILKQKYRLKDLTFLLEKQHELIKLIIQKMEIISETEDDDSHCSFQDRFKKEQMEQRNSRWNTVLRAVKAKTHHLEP

Chain of 5-hydroxytryptamine receptor 4 (Q13639 whole entry): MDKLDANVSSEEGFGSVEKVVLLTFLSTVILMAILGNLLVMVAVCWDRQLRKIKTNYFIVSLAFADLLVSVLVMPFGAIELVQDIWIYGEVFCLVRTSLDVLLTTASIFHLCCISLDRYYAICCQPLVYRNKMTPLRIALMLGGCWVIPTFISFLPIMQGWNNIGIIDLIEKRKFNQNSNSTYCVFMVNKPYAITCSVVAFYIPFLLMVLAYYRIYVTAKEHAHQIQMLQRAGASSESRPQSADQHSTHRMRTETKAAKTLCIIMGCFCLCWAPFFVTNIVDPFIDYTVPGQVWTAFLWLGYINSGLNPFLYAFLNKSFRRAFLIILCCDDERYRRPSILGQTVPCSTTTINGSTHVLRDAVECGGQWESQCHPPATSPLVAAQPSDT
Chain of Coagulation factor X (P00742 41-179 limits assumed): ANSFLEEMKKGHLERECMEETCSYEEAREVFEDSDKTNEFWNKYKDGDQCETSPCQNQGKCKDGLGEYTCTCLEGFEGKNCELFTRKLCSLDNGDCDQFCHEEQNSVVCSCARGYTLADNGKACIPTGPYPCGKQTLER
Chain of Coagulation factor X (P00742 235-488 limits assumed): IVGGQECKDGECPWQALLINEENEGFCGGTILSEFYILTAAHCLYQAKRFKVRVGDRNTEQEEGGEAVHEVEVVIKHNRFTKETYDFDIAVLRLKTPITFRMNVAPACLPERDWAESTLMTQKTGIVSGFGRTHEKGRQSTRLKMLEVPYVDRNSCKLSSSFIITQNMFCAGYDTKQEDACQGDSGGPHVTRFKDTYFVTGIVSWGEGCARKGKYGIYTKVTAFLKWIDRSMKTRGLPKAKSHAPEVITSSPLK

| Compound | IC50 [1] [nM] | IC50 [4] [nM] | other results |
| --- | --- | --- | --- |
| COc1cc(N)c(Cl)cc1C(=O)OCCN1CCN(c2cccc(Cl)c2)CC1 | 162 |  | IC50 [2]: 2080 nM |
| Cc1cc(C(=O)Nc2ccc(-c3ccccc3C(F)(F)F)cc2)n(-c2cccc(C(=N)N)c2)n1 |  |  | IC50 [3]: 0.04 nM |
| Cc1c(=O)n(Cc2ccccc2)c(=O)n2cc(C(=O)NCc3ccc4[nH]ccc4c3)sc12 |  | 680 |  |
| Cc1ccc(CNC(=O)c2cn3c(=O)n(Cc4ccccc4)c(=O)c(C)c3s2)cc1 |  | 1370 |  |
| Cc1c(=O)n(Cc2ccccc2)c(=O)n2cc(C(=O)NCc3ccc4nsnc4c3)sc12 |  | 1460 |  |
| Cc1c(=O)n(Cc2ccccc2)c(=O)n2cc(C(=O)NCc3ccccc3)sc12 |  | 1880 |  |
| Cc1c(=O)n(Cc2ccccc2)c(=O)n2cc(C(=O)NCc3ccc(F)cc3)sc12 |  | 2230 |  |
| Cc1c(=O)n(Cc2ccccc2)c(=O)n2cc(C(=O)NCc3ccc(Cl)cc3)sc12 |  | 2230 |  |
| Cc1c(=O)n(Cc2ccccc2)c(=O)n2cc(C(=O)NCc3ccccn3)sc12 |  | 3490 |  |
| Cc1c(=O)n(Cc2ccccc2)c(=O)n2cc(C(=O)N3CC[C@@H](Oc4ccccc4C(F)(F)F)C3)sc12 |  | 100 |  |
| Cc1c(=O)n(Cc2ccccc2)c(=O)n2cc(C(=O)N3CC[C@H](Oc4ccccc4C(F)(F)F)C3)sc12 |  | 150 |  |
| Cc1c(=O)n(Cc2ccccc2)c(=O)n2cc(C(=O)N3CCC(Oc4ccccc4F)CC3)sc12 |  | 200 |  |
| Cc1c(=O)n(Cc2ccccc2)c(=O)n2cc(C(=O)N3CCC(c4ccccc4F)CC3)sc12 |  | 400 |  |
| Cc1cc(C(=O)Nc2ccc(-c3ccccc3S(C)(=O)=O)cc2)n(-c2cccc(C(=N)N)c2)n1 |  |  | IC50 [3]: 0.008 nM |

Continued, in another order:

| IC50 [1] [nM] | IC50 [4] [nM] | Compound | other results |
| --- | --- | --- | --- |
| 64 |  | COc1cc(N)c(Cl)cc1C(=O)OCCN1CCN(c2ccccc2OC)CC1 | IC50 [2]: 127 nM |
| 715 |  | COc1cc(N)c(Cl)cc1C(=O)OCCN1CCN(c2ccc(Cl)cc2)CC1 | IC50 [2]: 3660 nM |
| 296 |  | COc1cc(N)c(Cl)cc1C(=O)OCCN1CCN(c2ccccc2Cl)CC1 | IC50 [2]: 5830 nM |
| 1.4 |  | COc1cc(N)c(Cl)cc1C(=O)OCCN1CCN(c2ccccc2-c2cnccn2)CC1 |  |
|  | 1170 | Cc1c(=O)n(Cc2ccccc2)c(=O)n2cc(C(=O)NCc3ccncc3)sc12 |  |
|  | 1570 | Cc1c(=O)n(Cc2ccccc2)c(=O)n2cc(C(=O)NCc3cccnc3)sc12 |  |
|  | 1740 | COc1cc(CNC(=O)c2cn3c(=O)n(Cc4ccccc4)c(=O)c(C)c3s2)ccn1 |  |
|  | 200 | Cc1c(=O)n(Cc2ccccc2)c(=O)n2cc(C(=O)N3CCC(Oc4cccc(Cl)c4)CC3)sc12 |  |
| 3 |  | COc1cccc(N2CCN(CCOC(=O)c3cc(Cl)c(N)cc3OC)CC2)c1 | IC50 [2]: 50 nM |
| 18 |  | COc1ccc(N2CCN(CCOC(=O)c3cc(Cl)c(N)cc3OC)CC2)cc1 | IC50 [2]: 250 nM |
| 17 |  | COc1cc(N)c(Cl)cc1C(=O)OCCN1CCN(c2ccccc2F)CC1 | IC50 [2]: 645 nM |
